Results as given in publication PMC9508125, “The evolutionary advantage of an aromatic clamp in plant family 3 glycoside exo-hydrolases” (Nature Communications, 2022).

Experiments:
Native HvExoI = Native HvExoI (Hordeum vulgare, UniProt Q9XEI3); test: Inhibition by thio-analogues using the 4NP-Glc substrate; type: biochemical; details: calculated according to ∆G = -RT ln [1/Ki]
Description: (§1) Dependency of activities of WT and mutant HvExoI on pH (McIlvaine buffers in the pH range of 3.5–8.5 at 30 °C) and temperature (100 mM sodium acetate buffer, pH 5.25, temperature range 0–80 °C, 15 min incubations) were determined using 0.2% (w/v) 4NP-Glc[21],[59]. Relative rates of hydrolysis of β-linked poly-, oligosaccharides, and aryl-glucosides were determined using near-homogenous HvExoI at 50 pmoles. […] Kinetic parameters were calculated from the analyses of Michaelis-Menten plots with Grafit 7.0.3[62] and processed by a proportional weighted fit, using nonlinear regression. The relative rates of hydrolysis, kinetic, and inhibition data were rounded to one or two decimal points (Supplementary Tables 2–4).

WT HvExoI = WT HvExoI (Hordeum vulgare, UniProt Q9XEI3); test: as above; type: biochemical
Chain of WT HvExoI (Q9XEI3 entry or part of it): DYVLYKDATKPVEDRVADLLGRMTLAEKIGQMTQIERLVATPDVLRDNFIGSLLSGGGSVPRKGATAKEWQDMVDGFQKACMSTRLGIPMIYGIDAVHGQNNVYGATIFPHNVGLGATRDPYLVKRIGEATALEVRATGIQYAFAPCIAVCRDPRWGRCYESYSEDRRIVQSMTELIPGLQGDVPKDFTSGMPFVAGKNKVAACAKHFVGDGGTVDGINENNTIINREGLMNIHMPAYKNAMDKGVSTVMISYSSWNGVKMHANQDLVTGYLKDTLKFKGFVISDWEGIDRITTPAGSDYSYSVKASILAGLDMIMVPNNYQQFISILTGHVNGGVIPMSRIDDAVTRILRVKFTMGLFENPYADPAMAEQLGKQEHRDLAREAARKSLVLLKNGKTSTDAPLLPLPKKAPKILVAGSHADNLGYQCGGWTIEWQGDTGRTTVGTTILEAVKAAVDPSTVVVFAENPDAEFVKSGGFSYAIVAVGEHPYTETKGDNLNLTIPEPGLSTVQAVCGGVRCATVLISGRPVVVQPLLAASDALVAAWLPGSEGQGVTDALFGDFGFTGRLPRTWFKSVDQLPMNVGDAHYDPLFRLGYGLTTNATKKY
Description: as §1

Recombinant HvExoI W286Y = type: biochemical, Hordeum vulgare; details: calculated according to ∆G = -RT ln [1/Ki]
Description: as §1

Recombinant HvExoI W286F = test: Inhibition by thio-analogues using the 4NP-Glc substrate; type: biochemical, Hordeum vulgare; details: calculated according to ∆G = -RT ln [1/Ki]
Description: as §1

Recombinant HvExoI W434A = test: as above; type: biochemical, Hordeum vulgare; details: calculated according to ∆G = -RT ln [1/Ki]
Description: as §1

Recombinant HvExoI W434F = test: as above; type: biochemical, Hordeum vulgare; details: calculated according to ∆G = -RT ln [1/Ki]
Description: as §1

Recombinant HvExoI W434H = test: as above; type: biochemical, Hordeum vulgare; details: calculated according to ∆G = -RT ln [1/Ki]
Description: as §1

Recombinant HvExoI W434Y = test: as above; type: biochemical, Hordeum vulgare; details: calculated according to ∆G = -RT ln [1/Ki]
Description: as §1

HvExoI = target: HvExoI; parameters: method as in PMID 8617814; details: transition state analogue; previous observations; cited from earlier work

Chain of Native HvExoI (Q9XEI3 entry or part of it): as above

For “4-nitrophenyl 3-thio-laminaribioside [4NP-G3SG]”, the ΔG (Native HvExoI) was -4.37 kcal/mol, the ΔG (WT HvExoI; Recombinant WT, calculated according to ∆G = -RT ln [1/Ki]) was -4.37 kcal/mol and the type of inhibition (WT HvExoI; WT HvExoI) was “competitive inhibition”. For the same molecule, the ΔG (Recombinant HvExoI W286Y) was -3.75 kcal/mol, the ΔG (Recombinant HvExoI W286F) was -4.37 kcal/mol and the ΔG (Recombinant HvExoI W434A) was -3.92 kcal/mol. It also gave a ΔG (Recombinant HvExoI W434F) of -4.11 kcal/mol, a ΔG (Recombinant HvExoI W434H) of -3.61 kcal/mol and a ΔG (Recombinant HvExoI W434Y) of -3.75 kcal/mol.
In the case of `O=C1O[C@H](CO)[C@@H](O)[C@H](O)[C@H]1O` [D-glucono−1,5-lactone], the Ki (HvExoI) is listed as 2100 nM.
